Earlier results in patent publication US4127537A, “Novel tetracosapeptides, intermediates therefor and pharmaceutical compositions and methods employing said tetracosapeptides” (priority 1977, dated 1978).

Legend:
[1] = test system: brain opiate receptor sites; details: natural peptide; Bradbury et al., Nature 260, 793 (1976)
rat = details: injected directly into the brain of the rat; Belluzzi et al., Nature 260, 625 (1976)

H-Tyr-Gly-Gly-Phe-Met-OH [methionine enkephalin]
binding to partially purified brain opiate receptor sites [1]: binds stereo-specifically
analgesic activity (rat): weak analgesic agent of short duration
